Laboratory results published in article PMC5775280, “Functional Characterization and Signaling Systems of Corazonin and Red Pigment Concentrating Hormone in the Green Shore Crab, Carcinus maenas” (Frontiers in Neuroscience, 2018).
Peptide text beside a SMILES is read from it.

How the values were obtained:
[1] = Hemolymph triglyceride levels after peptide injection; assay type: in vivo, Carcinus maenas; details: mean ± 1 SEM, n = 6, SEM
Protocol: (§1) Adipokinetic and glucose mobilizing activity of […] and ACP were performed by measurement of triglycerides in hemolymph ([…] et al., [2014]) and glucose (Chung and Webster, [1996]). Hemolymph samples (ca. 100 μl) were taken from crabs injected with each peptide at 0 and 90 min, and subsequently assayed.

[2] = tested on: semi-isolated heart; assay: Cardioactivity on semi-isolated heart preparations; set-up: species or system Carcinus maenas; details: superfusion, concentrations up to 10^−6 M, 20°C
Protocol: Cardioactivity of […], and ACP was performed on semi-isolated heart preparations of C. maenas. Crabs (ca. 65 mm carapace width) were ice-anesthetized and rapidly decerebrated before removing all limbs and the dorsal carapace to expose the heart and pericardial cavity. The heart was connected to a force transducer (MLT0210/A) via a micro fishing hook (size 28) and fine nylon (0.08 mm) monofilament. Connection to a PC with Chart 4.0 was via a Bridge Pod (ML301) and Powerlab 4/20 (AD Instruments Pty Ltd, Castle Hill, NSW, Australia). Transducer gain was set at maximum sensitivity (200 μV). Heart preparations were initially perfused with C. maenas physiological saline (Saver et al., [1999]) at room temperature (20°C). Once a stable heart output was achieved, hearts were firstly perfused with 1 ml saline, followed by increasing concentrations of peptides, applied in 1 ml. Crustacean cardioactive peptide (CCAP) (Bachem, Bubendorf, Switzerland), or proctolin (Sigma, Poole, UK) were positive controls (10^-11-10^-7 M). Test peptides ([…]) were perfused at 10^-8-10^-6 M for approximately 2 min at each concentration.

[3] = molecular target: T1, C. maenas RPCHR (red pigment concentrating hormone receptor) (Carcinus maenas, UniProt A0A2L0WQF2); assay: Aequorin luminescence Ca2+ mobilization in CHO-K1-Aeq cells transiently expressing RPCHR; assay type: cell-based; details: CHO-K1-Aeq cells (without Gα16) transiently expressing RPCHR; luminescence response normalized to total Ca2+ response; dose response curves, means of n = 4
T1 sequence (A0A2L0WQF2 1-529): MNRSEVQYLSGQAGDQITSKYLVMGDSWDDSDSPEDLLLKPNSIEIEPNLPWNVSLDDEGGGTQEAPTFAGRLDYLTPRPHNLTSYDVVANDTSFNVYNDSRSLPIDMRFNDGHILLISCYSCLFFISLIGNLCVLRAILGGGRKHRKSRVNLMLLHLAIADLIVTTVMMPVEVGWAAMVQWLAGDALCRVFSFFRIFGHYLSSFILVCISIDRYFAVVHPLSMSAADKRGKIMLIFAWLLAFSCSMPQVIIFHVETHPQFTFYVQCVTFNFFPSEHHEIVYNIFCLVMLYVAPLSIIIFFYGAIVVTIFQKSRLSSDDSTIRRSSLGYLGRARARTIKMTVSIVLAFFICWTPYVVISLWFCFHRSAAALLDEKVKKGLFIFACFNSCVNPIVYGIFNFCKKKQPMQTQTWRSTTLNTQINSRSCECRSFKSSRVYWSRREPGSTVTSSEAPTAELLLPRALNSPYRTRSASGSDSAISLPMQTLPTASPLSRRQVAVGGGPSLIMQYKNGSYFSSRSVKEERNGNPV
Protocol: Chinese hamster ovary (CHO-K1) cells containing stably expressed apoaequorin (Perkin Elmer, Boston, MA) and either Gα16 or Gq subunit (control cells) were cultured in Dulbecco's Modified Eagle Medium (DMEM) F-12 Nutrient Mixture GlutaMax (Gibco®) supplemented with 10% fetal bovine serum (Gibco®). Cells were maintained in vented T75 flasks at 37°C in 5% CO2.
Cells grown in a monolayer to approximately 60% confluency in T75 flasks were transfected with pcDNA3.1 constructs using FugeneHD (Promega) according to the manufacturer's recommendations. Briefly, transfection medium was prepared by combining 800 μl Opti-MEM® (Gibco) with 10 μg vector and 30 μl Fugene HD in a 2 ml polystyrene tube and incubated for 10 min at room temperature. The transfection reagent was added to 5 ml of fresh culture media and the cells incubated overnight at 37°C in 5% CO2. After 24 h, an additional 10 ml of culture media were added to the flasks and the cells returned to 37°C at 5% CO2 for a further overnight incubation.
On the day of the assay, cells were detached from the culture flask by incubating for 12 min in 5 ml 0.2% EDTA in PBS. The cells were washed with 10 ml DMEM clear DMEM/F-12 containing L-glutamine, 15 mM HEPES and moved to 50 ml centrifuge tubes. Cells were centrifuged for 5 min at 260 g and resuspended to a concentration of 5 × 10^6 cells ml^−1 in 0.2 μm filtered BSA medium (DMEM/F-12 containing L-glutamine, 15 mM HEPES + 0.1% BSA). Coelenterazine h (Invitrogen, Paisley, UK) was added to a concentration of 5 μM and the cells incubated for 4 h in the dark at room temperature whilst gently rocking. The cells were diluted 10-fold and incubated for a further 60 min before use in the assay. Synthetic peptides (GeneCust, Dudelange, Luxembourg) were reconstituted in 30% acetonitrile, dried in small aliquots by vacuum centrifugation and subsequently redissolved in BSA medium. Fifty microliter aliquots were then dispensed into quadruplicate wells of a white 96-well plate (OptiPlate, PerkinElmer). Cell suspensions were gently stirred and injected in 50 μl aliquots into each well using a Mithras LB 940 microplate reader (Berthold Technologies, Bad-Wildbad, Germany) and light emission (Ca^2+ response) recorded for 30 s. Cells were then lysed by injection of 0.3% Triton-X in BSA medium and light emission recorded for a further 10 s to measure total Ca^2+ response. BSA medium was used for blank measurements (6 replicate wells per plate) and mock transfection with empty vectors carried out for negative controls. Data was analyzed using MikroWin v5.18 (Mikrotek Laborsysteme GmbH) and SigmaPlot v.13 (Systat Software, Inc.). Receptor response was normalized against total Ca^2+ response.

[4] = tested on: red and black epidermal chromatophores, dactyl of the 5th walking leg; assay: Chromatophore pigment migration bioassay in vivo; set-up: species or system Carcinus maenas; details: injection after 40 min dispersion with 5 pmol PDH, 0.1–100 pmol/crab for RPCH or AKH, 100 pmol/crab for CRZ or ACP, scored 5 and 20 min after injection
Protocol: Pigmentary effector activity of […], Locusta migratoria AKH-I, and ACP were measured in vivo, using small (15-20 mm carapace width) C. maenas. Crabs were firstly adapted to a white background, light intensity 300 lx for 1 h. Pigment dispersion of red and black chromatophores in the […] of the 5th walking leg were microscopically observed and indices of dispersion scored according to Hogben and Slome ([1931]). Red and black chromatophores were firstly fully dispersed by injection of 5 pmol C. maenas pigment dispersing hormone ([…]) in 10 μl saline into the hypobranchial sinus, using hand-drawn glass microcapillaries. Chromatophore dispersion indices were scored at 0, 20, 40 min. Peptides were then injected and chromatophores subsequently scored after 5 and 20 min.

[5] = Hemolymph glucose levels after peptide injection; assay type: in vivo, Carcinus maenas; details: injection 100 pmol, n = 8
Protocol: as §1

In the case of `CC(C)C[C@H](NC(=O)[C@@H]1CCC(=O)N1)C(=O)N[C@@H](CC(N)=O)C(=O)N[C@@H](Cc1ccccc1)C(=O)N[C@@H](CO)C(=O)N1CCC[C@H]1C(=O)NCC(=O)N[C@@H](Cc1c[nH]c2ccccc12)C(N)=O` [RPCH] (HELM PEPTIDE1{[Glp].L.N.F.S.P.G.W.[am]}$$$$V2.0), the “hemolymph triglyceride levels, 0 min” value ([1]; injection 100 pmol per crab) is reported as 0.14 ± 0.14 µg/µL, the “hemolymph triglyceride levels, 90 min” value ([1]; injection 100 pmol per crab, no significant change over 90 min) is reported as 0.86 ± 0.4 µg/µL and the “hemolymph triglyceride levels, 0 min” value ([1]; repeat experiment, injection 10 pmol) is reported as 0.49 ± 0.27 µg/µL. For the same molecule, the “hemolymph triglyceride levels, 90 min” value ([1]; repeat experiment, injection 10 pmol, no significant change) was 0.20 ± 0.28 µg/µL, the “hemolymph triglyceride levels, 0 min” value ([1]; repeat experiment, injection 100 pmol) was 1.65 ± 0.59 µg/µL and the “hemolymph triglyceride levels, 90 min” value ([1]; repeat experiment, injection 100 pmol, no significant change) was 0.78 ± 0.44 µg/µL. For the same molecule, the “cardioacceleratory effect on semi-isolated hearts” value [2] was “completely without cardioacceleratory effect”, the EC50 [3] was 0.02 nM and the “pigment migration (concentration) in red and black epidermal chromatophores” value [4] was “dose-dependent concentration of pigment in the red (but not the black) chromatophores”. For the same molecule, the “effect of eyestalk removal on the glucose response” value ([5]; eyestalk removal, 90 min) was “completely abolished this response” and the “effect on circulating glucose levels, intact crabs” value ([5]; within 90 min, Student's matched pair t-test P < 0.01) was “significantly raised circulating glucose levels”.
